Source: PMC10873978, “Novel tetrahydroisoquinolines as DHFR and CDK2 inhibitors: synthesis, characterization, anticancer activity and antioxidant properties” (BMC Chemistry, 2024)

Experiments:
MCF7 cells = experiment: Cell cycle analysis (propidium iodide flow cytometry), MCF7; format: cell-based, human
Method: Then centrifuged the cells and washed twice with ice-cold PBS, and incubated for 20 min at 4 °C. A cell cycle assay was used to assess the cell cycle (Propidium Iodide Flow Cytometry Kit [ab13941]. Then perform statistical analysis for the result by the Cell quest software on the cell fractions in sub-G0/G1, S, and G2/M phases.

IKB kinase B = target: T1, IKB kinase B (Homo sapiens, UniProt O14920); experiment: IKB kinase inhibition; format: biochemical; details: for %inh: IκB
T1 sequence (O14920 1-756): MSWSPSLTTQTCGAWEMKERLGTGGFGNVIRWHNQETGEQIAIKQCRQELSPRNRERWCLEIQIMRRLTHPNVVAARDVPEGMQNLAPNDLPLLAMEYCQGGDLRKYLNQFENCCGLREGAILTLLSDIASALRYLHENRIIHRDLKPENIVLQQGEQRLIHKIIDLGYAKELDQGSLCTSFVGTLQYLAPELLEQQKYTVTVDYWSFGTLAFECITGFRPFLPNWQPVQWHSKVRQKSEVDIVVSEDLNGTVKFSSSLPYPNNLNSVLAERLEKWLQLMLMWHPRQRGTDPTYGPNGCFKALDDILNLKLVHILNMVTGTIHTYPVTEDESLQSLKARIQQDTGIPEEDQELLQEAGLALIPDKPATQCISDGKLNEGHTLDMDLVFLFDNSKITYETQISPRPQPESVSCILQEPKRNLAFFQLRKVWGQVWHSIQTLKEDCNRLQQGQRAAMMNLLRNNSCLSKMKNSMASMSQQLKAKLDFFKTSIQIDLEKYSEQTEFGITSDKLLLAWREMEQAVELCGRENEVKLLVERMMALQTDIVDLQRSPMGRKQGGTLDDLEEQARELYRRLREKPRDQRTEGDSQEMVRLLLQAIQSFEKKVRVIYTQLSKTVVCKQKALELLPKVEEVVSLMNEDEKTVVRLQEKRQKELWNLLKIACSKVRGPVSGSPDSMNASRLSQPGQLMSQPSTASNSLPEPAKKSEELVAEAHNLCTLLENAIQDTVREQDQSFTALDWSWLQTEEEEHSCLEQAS

[1] = MCF7 cells, compound at IC50, 48 h

## CC(=O)c1ccc(NC(=O)c2sc3nc(C)c4c(c3c2N)CC(C)(O)C(C(C)=O)C4c2ccc(N(C)C)cc2)cc1 (stereo not shown) [Compound 8d, 7-Acetyl-N-(4-acetylphenyl)-1-amino-5,8-dimethyl-8-hydroxy-6-(4-N,N-dimethylaminophenyl)-6,7,8,9-tetrahydrothieno[2,3-c]isoquinoline-2-carboxamide]
MCF7 cells; MCF7 cell line
  phase of cell cycle arrest: S phase
MCF7 cells; [1]
  DNA content %G0-G1: 52.03%
  DNA content %G2/M: 10.05%
  DNA content %S: 37.92%
IKB kinase B; conc 0.01 (log -2)
  %inh: 21.8%
IKB kinase B; conc 0.1 (log -1)
  %inh: 42.3%
IKB kinase B; conc 1 (log 0)
  %inh: 63.9%
IKB kinase B; conc 10 (log 1)
  %inh: 86.4%
IKB kinase B; conc 100 (log 2)
  %inh: 93.7%
IKB kinase B; read-out: IKB kinase B (IC50 ± SD)
  IC50: 240 ± 13 nM
